Source: patent US12344610B2, “APOL1 inhibitors and methods of use” (Maze Therapeutics, Inc., priority 2022, dated 2025)

These compounds were tested against T1, APOL1 G2 (Homo sapiens, UniProt O14791, DEL388-389) (assay: APOL1-mediated calcium transport (calcium influx) assay, HEK T-REx/GCaMP6f/APOL1 G2 K6.3 cells, FLIPR TETRA). Conditions: prevention of calcium influx; geometric mean of at least 2 assay runs; † = average of a technical replicate from a single assay run.
T1 construct: expressed in transfected cells; host or cells: HEK293 T-REx clonal line stably expressing GCaMP6f (HEK T-REx/GCaMP6f/APOL1 G2 K6.3), doxycycline induced
T1 sequence (O14791 with tags, fused parts or gaps DEL388-389): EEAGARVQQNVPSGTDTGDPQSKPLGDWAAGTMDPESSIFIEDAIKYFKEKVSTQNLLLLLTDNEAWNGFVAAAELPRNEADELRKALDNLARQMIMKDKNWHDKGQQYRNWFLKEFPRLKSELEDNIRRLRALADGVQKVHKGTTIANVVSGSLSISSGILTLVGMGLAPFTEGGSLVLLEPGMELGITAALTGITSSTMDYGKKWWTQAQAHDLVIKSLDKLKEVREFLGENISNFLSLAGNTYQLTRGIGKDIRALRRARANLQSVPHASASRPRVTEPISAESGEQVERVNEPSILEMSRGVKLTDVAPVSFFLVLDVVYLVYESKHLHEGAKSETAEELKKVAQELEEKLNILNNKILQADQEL
Assay type: cell-based
Outline: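 A HEK293 T-REx clone stably expressing GCaMP6f had APOL1 G2 induced with doxycycline (20 ng/mL solution added) for 6 h. Cells were then washed into Ca2+-free Tyrode's buffer (pH 7.4) and preincubated with compounds (duplicate 8-point) for 10 min at room temperature. Ca2+ injection to 5 mM final produced FLIPR GCaMP fluorescence, giving AC50 for influx inhibition (geometric mean, ≥2 runs).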

| Compound | AC50 [nM] |
| --- | --- |
| O=C1CCc2cc(OCCN3CCC4(CC3)C(=O)Nc3ccc(Cl)cc34)cnc2N1C1CC(CO)C1 (stereo not drawn) [Compound 326, 5-chloro-1′-[2-({8-[3-(hydroxymethyl)cyclobutyl]-7-oxo-5,6,7,8-tetrahydro-1,8-naphthyridin-3-yl}oxy)ethyl]-1,2-dihydrospiro[indole-3,4′-piperidin]-2-one] | 680 |
| CC1(O)CC(CN2C(=O)CCc3cc(OCCN4CCC5(CC4)C(=O)Nc4ccc(Cl)cc45)cnc32)C1 (stereo not drawn) [Compound 327, 5-chloro-1′-[2-({8-[(3-hydroxy-3-methylcyclobutyl)methyl]-7-oxo-5,6,7,8-tetrahydro-1,8-naphthyridin-3-yl}oxy)ethyl]-1,2-dihydrospiro[indole-3,4′-piperidin]-2-one] | 452 |
| C[C@]1(O)C[C@@H](n2c(=O)ccc3cc(OCCN4CCC5(CC4)C(=O)Nc4ccc(OC(F)F)cc45)cnc32)C1 [Compound 328, 5-(difluoromethoxy)-1′-[2-({7-oxo-8-[(cis)-3-hydroxy-3-methylcyclobutyl]-7,8-dihydro-1,8-naphthyridin-3-yl}oxy)ethyl]-1,2-dihydrospiro[indole-3,4′-piperidin]-2-one] | 748 |
| O=C1Nc2ccc(Cl)cc2C12CCN(CCOc1cnc(C3(CO)CC3)nc1)CC2 [Compound 333, 5-chloro-1′-[2-({2-[1-(hydroxymethyl)cyclopropyl]pyrimidin-5-yl}oxy)ethyl]-1,2-dihydrospiro[indole-3,4′-piperidin]-2-one] | 486 |
| CC(C)(CO)c1ncc(OCCN2CCC3(CC2)C(=O)Nc2ccc(Cl)cc23)cn1 [Compound 334, 5-chloro-1′-(2-{[2-(1-hydroxy-2-methylpropan-2-yl)pyrimidin-5-yl]oxy}ethyl)-1,2-dihydrospiro[indole-3,4′-piperidin]-2-one] | 2000 |
| CP(C)(=O)C1(c2ccc(OCCN3CCC4(CC3)C(=O)Nc3ccc(Cl)cc34)cc2)CC1 [Compound 343, 5-chloro-1′-(2-{4-[1-(dimethylphosphoryl)cyclopropyl]phenoxy}ethyl)-1,2-dihydrospiro[indole-3,4′-piperidin]-2-one] | 437 |
| C[C@]1(O)C[C@@H](N2C(=O)Cc3cc(OCCN4CCC5(CC4)C(=O)Nc4ccc(Cl)cc45)cnc32)C1 [Compound 345, 5-chloro-1′-[2-({2-oxo-1-[(cis)-3-hydroxy-3-methylcyclobutyl]-1H,2H,3H-pyrrolo[2,3-b]pyridin-5-yl}oxy)ethyl]-1,2-dihydrospiro[indole-3,4′-piperidin]-2-one] | 469 |
| C[C@]1(O)C[C@@H](N2C(=O)Cc3cc(OCCN4CCC5(CC4)C(=O)Nc4ccc(C(F)F)cc45)cnc32)C1 [Compound 346, 5-(difluoromethyl)-1′-[2-({2-oxo-1-[(cis)-3-hydroxy-3-methylcyclobutyl]-1H,2H,3H-pyrrolo[2,3-b]pyridin-5-yl]oxy)ethyl]-1,2-dihydrospiro[indole-3,4′-piperidin]-2-one] | 557 |
| C[C@]1(O)C[C@@H](n2ccc3cc(OCCN4CCC5(CC4)C(=O)Nc4ccc(Cl)cc45)cnc32)C1 [Compound 349, 5-chloro-1′-[2-({1-[(cis)-3-hydroxy-3-methylcyclobutyl]-1H-pyrrolo[2,3-b]pyridin-5-yl}oxy)ethyl]-1,2-dihydrospiro[indole-3,4′-piperidin]-2-one] | 199 |
| C[C@]1(O)C[C@@H](n2ccc3cc(OCCN4CCC5(CC4)C(=O)Nc4ccc(C(F)F)cc45)cnc32)C1 [Compound 350, 5-(difluoromethyl)-1′-[2-({1-[(cis)-3-hydroxy-3-methylcyclobutyl]-1H-pyrrolo[2,3-b]pyridin-5-yl}oxy)ethyl]-1,2-dihydrospiro[indole-3,4′-piperidin]-2-one] | 113 |
| C[C@]1(O)C[C@@H](n2cnc3cc(OCCN4CCC5(CC4)C(=O)Nc4ccc(Cl)cc45)cc(C(F)(F)F)c32)C1 [Compound 352, 5-chloro-1′-[2-({1-[(cis)-3-hydroxy-3-methylcyclobutyl]-7-(trifluoromethyl)-1H-1,3-benzodiazol-5-yl}oxy)ethyl]-1,2-dihydrospiro[indole-3,4′-piperidin]-2-one] | 597 |
| C[C@]1(O)C[C@@H](N2C(=O)NCc3cc(OCCN4CCC5(CC4)C(=O)Nc4ccc(Cl)cc45)cnc32)C1 [Compound 356, 5-chloro-1′-[2-({2-oxo-1-[(cis)-3-hydroxy-3-methylcyclobutyl]-1H,2H,3H,4H-pyrido[2,3-d]pyrimidin-6-yl}oxy)ethyl]-1,2-dihydrospiro[indole-3,4′-piperidin]-2-one] | 2490 |
| CC(C)(O)c1ncc(OCCN2CCC3(CC2)C(=O)Nc2ccc(Cl)cc23)cc1C(F)(F)F [Compound 371, 5-chloro-1′-(2-{[6-(2-hydroxypropan-2-yl)-5-(trifluoromethyl)pyridin-3-yl]oxy}ethyl)-1,2-dihydrospiro[indole-3,4′-piperidin]-2-one] | 504 |
| C[C@]1(O)C[C@@H](n2c(=O)oc3cc(OCCN4CCC5(CC4)C(=O)Nc4ccc(Cl)cc45)cnc32)C1 [Compound 394, 5-chloro-1′-[2-({2-oxo-3-[(cis)-3-hydroxy-3-methylcyclobutyl]-2H,3H-[1,3]oxazolo[4,5-b]pyridin-6-yl}oxy)ethyl]-1,2-dihydrospiro[indole-3,4′-piperidin]-2-one] | 250 |
| O=C1Nc2ccc(Cl)cc2C12CCN(CCOc1cnc(N3CC4(CC(O)C4)C3)nc1)CC2 [Compound 396, 5-chloro-1′-{2-[(2-{6-hydroxy-2-azaspiro[3.3]heptan-2-yl}pyrimidin-5-yl)oxy]ethyl}-1,2-dihydrospiro[indole-3,4′-piperidin]-2-one] | 531 |
| CCC1(O)CN(c2ncc(OCCN3CCC4(CC3)C(=O)Nc3ccc(Cl)cc34)cn2)C1 [Compound 397, 5-chloro-1′-(2-{[2-(3-ethyl-3-hydroxyazetidin-1-yl)pyrinlidin-5-yl]oxy}ethyl)-1,2-dihydrospiro[indole-3,4′-piperidin]-2-one] | 416 |
| CC(CO)(c1ncc(OCCN2CCC3(CC2)C(=O)Nc2ccc(Cl)cc23)cc1C(F)(F)F)S(C)(=O)=O (stereo not drawn) [Compound 401, 5-chloro-1′-(2-{[6-(1-hydroxy-2-methanesulfonylpropan-2-yl)-5-(trifluoromethyl)pyridin-3-yl]oxy}ethyl)-1,2-dihydrospiro[indole-3,4′-piperidin]-2-one] | 603 |
| C[C@]1(O)C[C@@H](n2ccc3cc(OCCN4CCC5(CC4)C(=O)Nc4ccc(C#N)cc45)cnc32)C1 [Compound 410, 2-oxo-1′-[2-({1-[(cis)-3-hydroxy-3-methylcyclobutyl]-1H-pyrrolo[2,3-b]pyridin-5-yl}oxy)ethyl]-1,2-dihydrospiro[indole-3,4′-piperidine]-5-carbonitrile] | 623 |
| CC(C)(O)c1ncc(OCCN2CCC3(CC2)C(=O)Nc2ccc(C#N)cc23)cc1C(F)(F)F [Compound 411, 1′-(2-{[6-(2-hydroxypropan-2-yl)-5-(trifluoromethyl)pyridin-3-yl]oxy}ethyl)-2-oxo-1,2-dihydrospiro[indole-3,4′-piperidine]-5-carbonitrile] | 436 |
| [2H]C([2H])(Oc1cnc2c(c1)CCC(=O)N2[C@H]1C[C@@](C)(O)C1)C([2H])([2H])N1CCC2(CC1)C(=O)Nc1ccc(Cl)cc12 [Compound 426, 5-chloro-1′-[2-({7-oxo-8-[(cis)-3-hydroxy-3-methylcyclobutyl]-5,6,7,8-tetrahydro-1,8-naphthyridin-3-yl}oxy)(1,1,2,2-^2H4)ethyl]-1,2-dihydrospiro[indole-3,4′-piperidin]-2-one] | 597 |
| C[C@]1(O)C[C@@H](n2cc3cc(OCCN4CCC5(CC4)C(=O)Nc4ccc(Cl)cc45)cc(C(F)(F)F)c3n2)C1 [Compound 427, 5-chloro-1′-[2-({2-[(cis)-3-hydroxy-3-methylcyclobutyl]-7-(trifluoromethyl)-2H-indazol-5-yl}oxy)ethyl]-1,2-dihydrospiro[indole-3,4′-piperidin]-2-one] | 708 |
| C[C@]1(O)C[C@@H](n2cc3cc(OCCN4CCC5(CC4)C(=O)Nc4ccc(C#N)cc45)cc(C(F)(F)F)c3n2)C1 [Compound 428, 2-oxo-1′-[2-({2-[(cis)-3-hydroxy-3-methylcyclobutyl]-7-(trifluoromethyl)-2H-indazol-5-yl}oxy)ethyl]-1,2-dihydrospiro[indole-3,4′-piperidine]-5-carbonitrile] | 1200 |
| C[C@]1(O)C[C@@H](n2cnc3cc(OCCN4CCC5(CC4)C(=O)Nc4ccc(C#N)cc45)cc(C(F)(F)F)c32)C1 [Compound 433, 1′-(2-((1-((cis)-3-hydroxy-3-methylcyclobutyl)-7-(trifluoromethyl)-1H-benzo[d]imidazol-5-yl)oxy)ethyl)-2-oxospiro[indoline-3,4′-piperidine]-5-carbonitrile] | 1300 |
| C[C@]1(O)C[C@@H](n2nnc3cc(OCCN4CCC5(CC4)C(=O)Nc4ccc(Cl)cc45)cc(C(F)(F)F)c32)C1 [Compound 434, 5-chloro-1′-[2-({1-[(cis)-3-hydroxy-3-methylcyclobutyl]-7-(trifluoromethyl)-1H-1,2,3-benzotriazol-5-yl}oxy)ethyl]-1,2-dihydrospiro[indole-3,4′-piperidin]-2-one] | 1270 |
